The structures appear in SMILES notation.

The values that follow come from patent publication US20240148002A1, “BIOCIDAL COMPOSITIONS CONTAINING COPPER AND A CO-BIOCIDE” (CORNING INCORPORATED, priority 2021, published 2024).

This test relates to Pseudomonas aeruginosa (P. aeruginosa). The test can be described thus: Minimum bactericidal concentration (MBC) test: serial dilutions in thickened Letheen Broth, plating and colony count. Also on record: key to MBC observation (contamination grade): −: no bacteria was observed on the plates; +: a trace of contamination was observed (<10 colonies); ++: light contamination was observed (>100 colonies); +++: heavy contamination was observed (continuous smear of growth). The conditions noted are these: 24 hours at 37° C. Format: cell-based. The method, then: The minimum bactericidal concentration (MBC) values reported herein were determined using Pseudomonas aeruginosa (P. aeruginosa), which is a gram-negative pathogen that can cause severe acute and chronic infections. The MBC is the lowest biocide or biocide combination concentration that kills 100% of the tested bacteria. The cultures of P. aeruginosa were grown for 24 hours in Letheen Broth before treatment with each biocide (e.g., copper-containing glass particles or organic co-biocide) or biocide combination (e.g., copper-containing glass particles and an organic co-biocide). A stock copper-containing glass particle dispersion containing 10 wt % copper-containing glass particles and 1.5% hydoxyethylcellulose (HEC) thickener (Natrosol™ Plus 330 PA) was prepared for serial dilution in thickened Letheen Broth (Letheen Broth containing 1.5 wt % HEC thickener) to achieve the desired test concentrations. A stock organic co-biocide or biocide combination dispersion was prepared by combining 5 grams of a 1 wt % dispersion of each organic co-biocide or biocide combination in 1 wt % HEC thickener for serial dilution to achieve the desired test concentrations. 1000 μL of the dispersion of interest was added to a microcentrifuge tube (referred to as “tube 1”). Serial dilution continued with the dilution of 500 μL of the dispersion from tube 1 with 500 μL of thickened Letheen Broth (“tube 2”). Serial dilutions were continued in this manner […] (tube 3 to tube 10). Tube 11 contained 500 μL of thickened Letheen Broth as a “broth blank.” 50 μL of P. aeruginosa was transferred directly from culture into each of tubes 1-11 and the tubes were incubated at 37° C. for 24 hours. At the end of the incubation period, each tube 1-11 was plated and the plates were incubated at 37° C. for 24 hours. At the end of the incubation period, the plates were removed and the colonies on each plate were counted and recorded.
The number of colonies remaining after treatment was determined for serial dilutions of 3 different organic biocides alone and in combination with copper-containing glass particles. Example 1A was treated with serial dilutions of Nuosept® 95 Preservative, which contains a mixture of 5-hydroxymethyl-1-aza-3,7-dioxabicyclo-(3.3.0) octane, 5-hydroxymethoxymethyl-1-aza-3,7-dioxabicyclo-(3.3.0) octane, and 5-hydroxypoly(methyleneoxy)methyl-1-aza-3,7-dioxabicyclo-(3.3.0) octane. Examples 1B and 1C were treated with serial dilutions of a 50:50 mixture and a 25:75 mixture, respectively, of Nuosept® 95 Preservative and copper-containing glass particles. Example 2A was treated with serial dilutions of benzisothiazolinone (BIT). Examples 2B and 2C were treated with serial dilutions of a 50:50 mixture and a 25:75 mixture, respectively, of BIT and copper-containing glass particles. Example 3A was treated with serial dilutions of Bronopol. Examples 3B and 3C were treated with serial dilutions of a 50:50 mixture and a 25:75 mixture, respectively, of Bronopol and copper-containing glass particles. Examples 4A and 4B were duplicate samples treated with serial dilutions of the copper-containing glass particles.
For each Example 1A-C, 2A-C, 3A-C, and 4A-B, 1000 μL of the dispersion of interest, the stock organic co-biocide dispersion, the stock copper-containing glass particle dispersion, or the indicated ratio of each dispersion, was added to a microcentrifuge tube (referred to as “tube 1”). 500 μL of the dispersion from tube 1 was diluted with 500 μL of thickened Letheen Broth (“tube 2”). Serial dilutions with thickened Letheen Broth were prepared up to tube 10. Tube 11 contained 500 μL of thickened Letheen Broth as a “broth blank.” 50 μL of P. aeruginosa was transferred directly from culture into each of tubes 1-11 and the tubes were incubated at 37° C. for 24 hours. At the end of the incubation period, each tube 1-11 was plated and the plates were incubated 37° C. for 24 hours. […]

The mark [1] stands for this setting: Biocide Conc. 3.91 ppm (tube 10).
Where [2] appears, read: Biocide Conc. 7.81 ppm (tube 9).
The mark [3] stands for this setting: Biocide Conc. 15.63 ppm (tube 8).
The mark [4] stands for this setting: Biocide Conc. 31.25 ppm (tube 7).
Where [5] appears, read: Biocide Conc. 62.5 ppm (tube 6).
The mark [6] stands for this setting: Biocide Conc. 1000 ppm (tube 2).
Where [7] appears, read: Biocide Conc. 2000 ppm (tube 1).

Turning to `O=[N+]([O-])C(Br)(CO)CO` [Ex. 3A, Bronopol], the “MBC observation (contamination grade)” value by setting is: under setting [1], “+++”; under setting [2], “+++”; under setting [3], “−”; under setting [4], “−”; under setting [5], “−”; (Biocide Conc. 125 ppm (tube 5)) “−”. In addition, the “MBC observation (contamination grade)” value is given as “−” (Biocide Conc. 250 ppm (tube 4)), “−” (Biocide Conc. 500 ppm (tube 3)), “−” under setting [6] and “−” under setting [7]. Besides, the colony count entry was “(>1000) colonies” under setting [1]; “(>1000) colonies” under setting [2]; 0 colonies under setting [3]; 0 colonies under setting [4]; 0 colonies under setting [5]; 0 colonies (Biocide Conc. 125 ppm (tube 5)). The colony count (Biocide Conc. 250 ppm (tube 4)) was 0 colonies, the colony count (Biocide Conc. 500 ppm (tube 3)) came out at 0 colonies, the colony count under setting [6] turned out to be 0 colonies and the colony count under setting [7] stood at 0 colonies.

For the molecule `O=c1[nH]sc2ccccc12` [Ex. 2A, benzisothiazolinone], the “MBC observation (contamination grade)” value by setting is: under setting [1], “+++”; under setting [2], “+++”; under setting [3], “+++”; under setting [4], “++ (light contamination was observed (>100 colonies))”; under setting [5], “+ (a trace of contamination was observed (<10 colonies))”; (Biocide Conc. 125 ppm (tube 5)) “−”. The “MBC observation (contamination grade)” value reads like this: (Biocide Conc. 250 ppm (tube 4)) “−”; (Biocide Conc. 500 ppm (tube 3)) “−”; under setting [6], “−”; under setting [7], “−”. Moreover, the colony count result is given as “(>1000) colonies” under setting [1]; “(>1000) colonies” under setting [2]; “(>1000) colonies” under setting [3]; 513 colonies under setting [4]; 35 colonies under setting [5]; 0 colonies (Biocide Conc. 125 ppm (tube 5)). Besides, the colony count by setting is: (Biocide Conc. 250 ppm (tube 4)) 0 colonies; (Biocide Conc. 500 ppm (tube 3)) 0 colonies; under setting [6], 0 colonies; under setting [7], 0 colonies.
